Where “and” joins values, the source holds several entries; their conditions need not be identical. Equal values may be shown once. Read-outs that look alike come from different tables or passages of the source.
Assays:
[1] = cited from earlier work
[2] = Inhibited autoxidation of methyl linoleate in Triton X-100 micelles (O2 uptake kinetics)
Protocol: Autoxidation studies were performed as previously described, with slight modifications. In a typical experiment, 2.5 mL of air-saturated buffered (PBS, 50 mM, pH 7.4) aqueous dispersion of MeLin (final concentration 2.74 mM) in Triton™ X-100 (final concentration 16 mM) micelles were prepared by vortex mixing. A fresh stock solution of AAPH was added (final concentration 2.5 mM), immediately followed by addition (5–30 μL) of a stock solution of the antioxidant in acetonitrile (final concentration of 1–20 μM) and by additional vortex mixing (5 s). The mixture was sealed in a 2 mL glass vial provided with a PTFE-coated stirring bar and capped with the O2 sensor. The sample was equilibrated at 37 °C in a thermostatted bath equipped with a sealed magnetic stirrer, and oxygen concentration was monitored with time as previously described. Oxygen consumption in the absence of antioxidants was compared with that recorded in the presence of butein, homobutein, or α-tocopherol (α-TOH) as the reference antioxidant. […]. The stoichiometric factor n was determined from the length of the inhibited period τ by Equation (3). The rate of initiation Ri was determined in preliminary experiments using α-TOH as the inhibitor (n = 2) by Equation (3). (1) −d[O2]/dt=kp[RH]Ri/nkinh[AH]+Ri (2) R0/Rinh−Rinh/R0=nkinh[AH]/2ktRi (3) n=Riτ/[AH]
To study the antioxidant activity of butein and homobutein on quantitative grounds, we performed inhibited autoxidation studies using biomimetic neutral micelles of methyl linoleate (MeLin) in aqueous Triton™ X-100 (with 50 mM PBS, pH 7.4, 37 °C), since it is a well-validated model we and others used in previous studies. The reaction kinetics was followed by monitoring oxygen consumption via miniaturized NIR-fluorescence-quenching O2 probes, according to a previously validated protocol, both in the absence and in the presence of different concentrations of butein or homobutein. The reaction was initiated thermally in the aqueous phase by the controlled decomposition of the azo compound AAPH so as to clearly distinguish the chain-breaking mechanism from other efficacies based on interference with the initiation process (e.g., the Fenton reaction by metal chelation) and α-TOH was used as the reference antioxidant.

[3] = parameters: method as in doi:10.1021/ja00310a049; settings: reference value used for calibration, cited from earlier work

For CC(C)(C)c1cc(O)c(O)c(C(C)(C)C)c1 [3,5-di-tert-butylcatechol], the BDEOH [1] is given as 78.2 kcal/mol.
In the case of CC(C)(C)c1cc(C(C)(C)C)c(O)c(C(C)(C)C)c1 [TBP, 2,4,6-tri-tert-butylphenol], the BDEOH ([1]; reference phenol) is given as 80.1 kcal/mol.
In the case of OCCc1ccc(O)c(O)c1 [hydroxytyrosol], the BDEOH [1] is listed as 80.8 kcal/mol.
In the case of Cc1c(C)c2c(c(C)c1O)CC[C@@](C)(CCC[C@H](C)CCC[C@H](C)CCCC(C)C)O2 [α-TOH, (R,R,R)-α-tocopherol], the “kinh (inhibition rate constant)” value ([2]; AAPH (2.5 mM) initiated autoxidation of MeLin/Triton X-100 micelles, 37 °C, pH 7.4) is given as 22.4 ± 5.8 10^3 M^−1s^−1, the “kinh (inhibition rate constant)” value ([2]; MeLin in Triton X-100 micelles, pH 7.4, 37 °C) is given as “(2.2 ± 0.6) × 10^4 M^−1s^−1” and the “n (stoichiometric factor of peroxyl radical trapping)” value [3] is given as 2 and 2 ^2. For the same molecule, the “n (stoichiometric factor of peroxyl radical trapping)” value ([3]; listed as tocopherol) was 2.0 and the BDEOH [1] was 77.1 ^3 kcal/mol.
